Source: ChEMBL document CHEMBL5512696, “Discovery of a Novel ASM Direct Inhibitor with a 1,5-Diphenyl-pyrazole Scaffold and Its Antidepressant Mechanism of Action” (J Med Chem, 2024)
The source made the active and inactive calls. The rule behind the calls is not given here.

How the values were obtained:
[1] = Ratio of drug concentration in male ICR mouse brain to plasma at 1 mg/kg, iv measured after 60 mins by LC-MS/MS analysis; type: ADME, organism-based; settings: read-out: BPR
[2] = AUC (0 to infinity) in male ICR mouse at 1 mg/kg, iv measured upto 480 mins by LC-MS/MS analysis; type: ADME, organism-based; settings: in vivo, 8 h
Mus musculus [3] = organism: Mus musculus; settings: ICR, dose 6-24 mg/kg, route ip, time 2.0 weeks
Description: In vivo inhibition of ASM in ip dosed ICR mouse model of chronic unpredictable mild stress assessed as reduction in ASM activity in hippocampus administered once a day for 1 week post 8 week of chronic unpredictable mild stress and measured after 1 week by fluorescence based analysis

[4] = Cmax in male ICR mouse at 10 mg/kg, ip measured upto 480 mins by LC-MS/MS analysis; type: ADME, organism-based; settings: in vivo
Mus musculus [5] = test: Antineuroinflammatory activity in ip dosed ICR mouse model of chronic unpredictable mild stress assessed as reduction in IL-6 level in serum administered once a day for 1 week post 8 week of chronic unpredictable mild stress and measured after 1 week by ELISA; type: functional, organism-based; settings: dose 6-12 mg/kg, time 2.0 weeks
[6] = Drug concentration in male ICR mouse plasma at 1 mg/kg, iv measured after 30 mins by LC-MS/MS analysis; type: ADME, organism-based
Mus musculus [7] = test: Antidepressant activity in ip dosed ICR mouse model of chronic unpredictable mild stress assessed as reduction in oxidative stress by measuring increase in GSH level in cerebral cortex administered once a day for 1 week post 8 week of chronic unpredictable mild stress and measured after 1 week by ELISA; type: functional, organism-based; settings: dose 6-12 mg/kg, time 2.0 weeks
Mus musculus [8] = test: Antineuroinflammatory activity in ip dosed ICR mouse model of chronic unpredictable mild stress assessed as reduction in IL-1beta level in serum administered once a day for 1 week post 8 week of chronic unpredictable mild stress and measured after 1 week by ELISA; type: functional, organism-based; settings: dose 6-12 mg/kg, time 2.0 weeks
Mus musculus [9] = test: Antidepressant activity in ip dosed ICR mouse model of chronic unpredictable mild stress assessed as reduction in sphingosine-1-phosphate level in cerebral cortex administered once a day for 1 week post 8 week of chronic unpredictable mild stress and measured after 1 week by ELISA; type: functional, organism-based; settings: dose 6-12 mg/kg, time 2.0 weeks
[10] = Ratio of drug concentration in male ICR mouse brain to plasma at 1 mg/kg, iv measured after 30 mins by LC-MS/MS analysis; type: ADME, organism-based; settings: read-out: BPR
Mus musculus [11] = test: Antidepressant activity in ip dosed ICR mouse model of chronic unpredictable mild stress assessed as downregulation of neuronal apoptosis by measuring reduction in caspase-9 protein level in hippocampus administered once a day for 1 week post 8 week of chronic unpredictable mild stress and measured after 1 week by Western blot analysis; type: functional, organism-based; settings: dose 6-24 mg/kg, time 2.0 weeks
Mus musculus [12] = test: Antidepressant activity in ICR mouse model of chronic unpredictable mild stress assessed as downregulation of neuronal apoptosis by measuring increase in BDNF protein level in hippocampus at 6 to 24 mg/kg, ip administered once a day for 1 week post 8 week of chronic unpredictable mild stress and measured after 1 week by Western blot analysis; type: functional, organism-based; settings: dose 6-24 mg/kg, time 2.0 weeks
Mus musculus [13] = test: Antidepressant activity in ICR mouse model of chronic unpredictable mild stress assessed as reduction in ceramide level in cerebral cortex at 6 to 12 mg/kg, ip administered once a day for 1 week post 8 week of chronic unpredictable mild stress and measured after 1 week by ELISA; type: functional, organism-based; settings: dose 6-12 mg/kg, time 2.0 weeks
[14] = Observed MRT (0 to infinity) in male ICR mouse at 10 mg/kg, ip measured upto 480 mins by LC-MS/MS analysis; type: ADME, organism-based; settings: in vivo
[15] = Metabolic stability in human liver microsomes assessed as half life at 1 uM incubated for 60 mins by LC-MS/MS analysis; type: ADME, Microsome
Mus musculus [16] = test: Antidepressant activity in ICR mouse model of chronic unpredictable mild stress assessed as reduction in sphingomyelin level in cerebral cortex at 6 to 12 mg/kg, ip administered once a day for 1 week post 8 week of chronic unpredictable mild stress and measured after 1 week by ELISA; type: functional, organism-based; settings: dose 6-12 mg/kg, time 2.0 weeks
[17] = Cmax in male ICR mouse at 1 mg/kg, iv measured upto 480 mins by LC-MS/MS analysis; type: ADME, organism-based; settings: in vivo
[18] = Observed MRT (0 to infinity) in male ICR mouse at 1 mg/kg, iv measured upto 480 mins by LC-MS/MS analysis; type: ADME, organism-based; settings: in vivo
Mus musculus [19] = test: Antidepressant activity in ICR mouse model of chronic unpredictable mild stress assessed as reduction in ceramide level in hippocampus at 6 to 12 mg/kg, ip administered once a day for 1 week post 8 week of chronic unpredictable mild stress and measured after 1 week by ELISA; type: functional, organism-based; settings: dose 6-12 mg/kg, time 2.0 weeks
[20] = Neurotoxicity against human SH-SY5Y cells assessed as cell survival rate at 5 to 20 uM by CCK-8 assay relative to control; type: toxicity, cell-based; settings: dose 5-20 µM, read-out: Survival
Mus musculus [21] = test: Improvement in depression-like behavior in ICR mouse model of chronic unpredictable mild stress assessed as increase in total distance traveled in center at 6 to 24 mg/kg, ip administered once a day for 10 days post 8 week of chronic unpredictable mild stress by open field test; type: functional, organism-based; settings: dose 6-24 mg/kg, time 10.0 day
[22] = Metabolic stability in human liver microsomes assessed as intrinsic clearance at 1 uM incubated for 60 mins by LC-MS/MS analysis; type: ADME, Microsome; settings: read-out: CLH
Mus musculus [23] = test: Antidepressant activity in ip dosed ICR mouse model of chronic unpredictable mild stress assessed as reduction in sphingosine-1-phosphate level in hippocampus administered once a day for 1 week post 8 week of chronic unpredictable mild stress and measured after 1 week by ELISA; type: functional, organism-based; settings: dose 6-12 mg/kg, time 2.0 weeks
[24] = Half life in male ICR mouse at 10 mg/kg, ip measured upto 480 mins by LC-MS/MS analysis; type: ADME, organism-based; settings: in vivo
Mus musculus [25] = organism: Mus musculus; settings: ICR, dose 6-12 mg/kg, route ip, time 2.0 weeks
Description: In vivo inhibition of ASM in ICR mouse model of chronic unpredictable mild stress assessed as increase in 5-HT uptake in hippocampus at 6 to 12 mg/kg, ip administered once a day for 1 week post 8 week of chronic unpredictable mild stress and measured after 1 week by ELISA

[26] = Half life in male ICR mouse at 1 mg/kg, iv measured upto 480 mins by LC-MS/MS analysis; type: ADME, organism-based; settings: in vivo, 8 h
[27] = Drug concentration in male ICR mouse brain at 1 mg/kg, iv measured after 60 mins by LC-MS/MS analysis; type: ADME, organism-based; settings: read-out: Ct
[28] = Neurotoxicity against human SH-SY5Y cells assessed as reduction in cell viability at 5 to 20 uM by CCK-8 assay; type: toxicity, cell-based; settings: dose 5-20 µM
[29] = Observed clearance in male ICR mouse at 1 mg/kg, iv measured upto 480 mins by LC-MS/MS analysis; type: ADME, organism-based; settings: in vivo, 8 h
Mus musculus [30] = test: Antidepressant activity in ip dosed ICR mouse model of chronic unpredictable mild stress assessed as reduction in oxidative stress by measuring increase in SOD level in cerebral cortex administered once a day for 1 week post 8 week of chronic unpredictable mild stress and measured after 1 week by ELISA; type: functional, organism-based; settings: dose 6-12 mg/kg, time 2.0 weeks
SH-SY5Y = test: Neuroprotective activity against corticosterone induced human SH-SY5Y cells assessed as protection against corticosterone induced morphological changes measured after 24 hrs; type: functional, cell-based; settings: dose 5-20 µM
[31] = AUC (0 to t) in male ICR mouse at 10 mg/kg, ip measured upto 480 mins by LC-MS/MS analysis; type: ADME, organism-based; settings: in vivo
[32] = AUC (0 to infinity) in male ICR mouse at 10 mg/kg, ip measured upto 480 mins by LC-MS/MS analysis; type: ADME, organism-based; settings: in vivo
[33] = Neurotoxicity against human SH-SY5Y cells assessed as reduction in cell viability at 100 uM by CCK-8 assay; type: toxicity, cell-based
[34] = Bioavailability in male ICR mouse at 1 mg/kg, iv measured upto 480 mins by LC-MS/MS analysis; type: ADME, organism-based; settings: in vivo

With `O=C(NO)c1cc(-c2ccc(Br)cc2)n(-c2ccc(Cl)cc2)n1` the Kp at 1 h [1] was 0.57, the AUC [2] was 928.07 ng·h/mL and the inhibition (Mus musculus [3]) was “Dose-Dependent Effect”. For the same compound, the Cmax [4] was 4200 ng/mL, the Activity (Mus musculus [5]) was “Dose-Dependent Effect” and the concentration at 0.5 h [6] was 223 ng/mL. For the same compound, the Activity (Mus musculus [7]) was “Dose-Dependent Effect”, the Activity (Mus musculus [8]) was “Dose-Dependent Effect” and the Activity (Mus musculus [9]) was “Dose-Dependent Effect”. For the same compound, the Kp at 0.5 h [10] was 0.37, the Activity (Mus musculus [11]) was “Dose-Dependent Effect” and the Activity (Mus musculus [12]) was “Active”. The Activity (Mus musculus [13]) was “Active”, the MRT inf [14] was 52.8 min and the half-life at 1 µM [15] was 111 min. The Activity (Mus musculus [16]) was “Active”, the Cmax [17] was 2590 ng/mL and the MRT inf [18] was 15 min. For the same compound, the Activity (Mus musculus [19]) was “Active”, the viability [20] was > 78% and the Activity (Mus musculus [21]) was “Active”. The microsomal CLint at 1 µM [22] was 15.6 µL/min/mg, the Activity (Mus musculus [23]) was “Dose-Dependent Effect” and the half-life [24] was 50.4 min. For the same compound, the inhibition (Mus musculus [25]) was “Active”, the t1/2 [26] was 18.6 min and the concentration at 1 h [27] was 31.9 ng/mL. The Activity [28] was “Non-Toxic”, the CL [29] was 45.8798 mL/min/kg and the Activity (Mus musculus [30]) was “Dose-Dependent Effect”. For the same compound, the Activity (SH-SY5Y) was “Dose-Dependent Effect”, the AUC(0-t) at 8 h [31] was 3640 ng·h/mL and the AUC(0-inf) [32] was 3650 ng·h/mL. For the same compound, the Activity [33] was “Toxic” and the bioavailability [34] was 39.6%.
